tested on: Palmitoyl CoA oxidation in rat heart mitochondria; assay: Mitochondrial assay: Palmitoyl CoA oxidation; assay type: biochemical; conditions: 16 microM 1-C14 palmitoyl CoA, 15 min at 30° C., read-out: Effect of Compounds of the Invention on Palmitoyl CoA Oxidation (IC50)
Method: Rat heart mitochondria were isolated by the method of Nedergard and Cannon (Methods in Enzymol. 55, 3, 1979).
Palmitoyl CoA oxidation—The Palmitoyl CoA oxidation was carried out in a total volume of 100 micro liters containing the following agents: 110 mM KCl, 33 mM Tris buffer at pH 8, 2 mM KPi, 2 mM MgCl2, 0.1 mM EDTA, 14.7 microM defatted BSA, 0.5 mM malic acid, 13 mM carnitine, 1 mM ADP, 52 micrograms of mitochondrial protein, and 16 microM 1-C14 palmitoyl CoA (Sp. Activity 60 mCi/mmole; 20 microCi/ml, using 5 microliters per assay). The compounds of this invention were added in a DMSO solution at the following concentrations: 100 micro molar, 30 micro molar, and 3 micro molar. In each assay, a DMSO control was used. After 15 min at 30° C., the enzymatic reaction was centrifuged (20,000 g for 1 min), and 70 microliters of the supernatant was added to an activated reverse phase silicic acid column (approximately 0.5 ml of silicic acid). The column was eluted with 2 ml of water, and 0.5 ml of the eluent was used for scintillation counting to determine the amount of C^14 trapped as C^14 bicarbonate ion.

Molecule	IC50
(2R)-1-[(3S)-3-methyl-4-({5-[4-(trifluoromethyl)phenyl](1,2,4-oxadiazol-3-yl)}methyl)piperazinyl]-3-(2-methylbenzothiazol-5-yloxy)propan-2-ol	4700 nM
(2R)-1-[(2S)-2-methyl-4-({5-[3-(trifluoromethyl)phenyl](1,3,4-oxadiazol-2-yl)}methyl)piperazinyl]-3-(2-methylbenzothiazol-5-yloxy)propan-2-ol	1050 nM
(2R)-1-(4-{[5-(4-methoxyphenyl)(1,3,4-oxadiazol-2-yl)]methyl}piperazinyl)-3-(2-methylbenzothiazol-5-yloxy)propan-2-ol	8900 nM
(2R)-1-[(2S)-4-({5-[4-(tert-butyl)phenyl](1,3,4-oxadiazol-2-yl)}methyl)-2-methylpiperazinyl]-3-(2-methylbenzothiazol-5-yloxy)propan-2-ol	390 nM

The next lines start with the values.

IC50	Molecule
1140 nM	(2R)-1-(4-{[3-(2,4-dichlorophenyl)(1,2,4-oxadiazol-5-yl)]methyl}piperazinyl)-3-(2-methylbenzothiazol-5-yloxy)propan-2-ol
490 nM	(2R)-3-{(2S)-2-methyl-4-[(3-(2-thienyl)(1,2,4-oxadiazol-5-yl))methyl]piperazinyl}-1-(2-methylbenzothiazol-5-yloxy)propan-2-ol
3600 nM	Cc1nc2cc(OC[C@H](O)CN3CCN(Cc4nc5cc(-c6ccccc6)ccc5o4)CC3)ccc2s1 [(2R)-3-(2-methylbenzothiazol-5-yloxy)-1-{4-[(5-phenylbenzoxazol-2-yl)methyl]piperazinyl}propan-2-ol]
1100 nM	(2R)-3-(2-methylbenzothiazol-5-yloxy)-1-{4-[(5-phenyl(1,3,4-oxadiazol-2-yl))methyl]piperazinyl}propan-2-ol
